20 compounds from publication PMC11596563, “N-Aryl Benzimidazole and Benzotriazole Derivatives and Their Hybrids as Cytotoxic Agents: Design, Synthesis and Structure–Activity Relationship Studies” (Molecules, 2024) can be followed below.

Data set [1] relates to MCF-7. As to the kind of experiment: MTT test, cytotoxic effect. Format: cell-based. The note with it: Homo sapiens, MCF7, 24 h treatment, 0.1 to 100 µM, concentration that causes 50% cell death. (Formazan colour is commonly taken as a measure of viable cells.)
Procedure: (§1) At the first stage of biological testing, we studied the effect of the synthesized compounds on the survival of cells of both tumoral and normal origin. […] In our work, the cytotoxic profile of the synthesized molecules was assessed using the MTT test, based on the ability of a colorless tetrazolium salt (3-[4,5-dimethylthiazol-2-yl]-2,5-diphenyltetrazolium bromide, MTT) to be reduced to colored formazan in the presence of the mitochondrial enzymes of living cells. For this purpose, a number of cell lines of tumoral origin (SH-SY5Y, A549, MCF-7 and SW-480), as well as normal origin (Hek-293), were used.
(§2) For the experiments, we used tumor cell cultures SH-SY5Y, human neuroblast-like cells, A549, human lung adenocarcinoma, MCF-7, human mammary adenocarcinoma, SW-480 and human colorectal adenocarcinoma, as well as cells of normal origin obtained from human embryonic kidneys, Hek-293.
(§3) All cells were cultured in the Dulbecco Modified Eagle’s Medium (DMEM) with a high glucose content, 10% fetal bovine serum and 1% penicillin-streptomycin as an antibiotic, in a moist incubator with 5% CO2 at 37°C.
(§4) To measure cellular metabolic activity, a colorimetric analysis was performed using the MTT reagent (3-(4,5–dimethylthiazol-2-yl)-2,5-diphenyltetrazolium bromide), which is an inhibitor of viable cells [73, 74].
(§5) • Briefly, cells in the logarithmic growth phase were digested and resuspended to adjust the cell density. The cells were then seeded in 96-well plates at a density of 10,000 cells per well. After 24 h of the incubation of the cells under the standard conditions described above (for the purpose of cell adhesion), the cells were treated with the synthesized compounds at different concentrations (0.1 to 100 µM) or a vehicle alone as a control (1% DMSO) for 24 h. After the incubation time of the cells with synthesized compounds, 5 mg/mL of MTT was added to the cells and incubated for 2 h at 37 °C. Next, the supernatant was discarded; after that, the formazan crystals were dissolved in a DMSO and the absorbance of each well was measured at 570 nm using a multifunctional microplate reader, Cytation3 (Biotech Tools Inc., Winooski, USA).
In data set [2] the test system is SH-SY5Y. Kind of data set: cells. The note with it: Homo sapiens, 24 h, read-out: IC50 of the cytotoxic effect, SH-SY5Y.
Procedure: as §1, §2, §3, §4, §5
Data set [3] in a line: MTT test, cytotoxic effect on cells of normal origin. The class given is cell-based, human. The note with it: human, Hek-293 cells (normal origin), 24 h treatment, 0.1 to 100 µM, normal cells, concentration that causes 50% cell death.
Procedure: as §1, §2, §3, §4, §5
Data set [4] relates to SW-480. Kind of data set: MTT test, cytotoxic effect. Format: cell-based. The note with it: Homo sapiens, SW480, 24 h treatment, 0.1 to 100 µM, concentration that causes 50% cell death.
Procedure: as §1, §2, §3, §4, §5
Data set [5] deals with A549. Kind of data set: MTT test, cytotoxic effect. Format: cell-based. The note with it: Homo sapiens, 24 h treatment, 0.1 to 100 µM, concentration that causes 50% cell death.
Procedure: as §1, §2, §3, §4, §5
In data set [6] the test system is Hek-293. As to the kind of experiment: MTT test, cytotoxic effect on cells of normal origin. Format: cell-based, human. The note with it: Hek-293.
Procedure: as §1, §2, §3, §4, §5
For data set [7], the system named is Fe(II)-induced lipid peroxidation (LPO) of rat brain homogenate. As to the kind of experiment: Fe(II)-induced lipid peroxidation, modified TBARS test. Format: biochemical. The settings on record: Fe(II) 500 μM; rat brain homogenate 2 mg/mL; 1 to 300 μM; read-out: IC50 of the lipid peroxidation inhibitory effect. As for the experimental part: In our work, the antioxidant status of the compounds was determined by their ability to influence the process of Fe(II)-induced lipid peroxidation (LPO) of rat brain homogenate (2 mg/mL). The effect of the substances on LPO was studied using a modified version of the TBA test in a plate format. This test is based on the reaction of 2-thiobarbituric acid with intermediate LPO products, resulting in the formation of a colored trimethine complex, the main role in the formation of which belongs to malondialdehyde. […] This was expressed in a decrease in the level of malondialdehyde in the system by 70, 79 and 71%, respectively, tending to the values of the well-known antioxidant Trolox. Additionally, the IC50 values of the lipid peroxidation inhibitory effect were calculated for these molecules, the values of which are presented in Figure 2B.
To obtain rat brain homogenate, an animal previously anesthetized in a CO2 chamber was decapitated using a guillotine. The brain was homogenized in a buffer containing KCl (120 mM) and HEPES (20 mM), pH = 7.4 at 4 ° C and centrifuged at 1500 g to obtain a supernatant.
The intensity of the lipid peroxidation of the rat brain homogenate was evaluated using a modified TBARS test. […] In the wells of the negative control, the Fe(II) was replaced with water; in samples with a positive control, a solvent was introduced instead of the studied compounds.
At the end of incubation, a TBA reagent ([…] thiobartituric and 1% trichloroacetic acids dissolved in 0.25 N HCl) was added to each well and heated at 90 °C for 90 min.

Some results are limits rather than exact numbers.

Consider `O=[N+]([O-])c1cc(C(F)(F)F)ccc1-n1cnc2ccccc21` [3a, 1-(2-Nitro-4-(trifluoromethyl)phenyl)-1H-benzimidazole], for which the melting point – broadly, the temperature of the solid-liquid transition – lay in the range of 130 to 132 °C. Moreover, the midpoint of inhibition in data set [1], the IC50, lay at 92.4 ± 1.4 µM. In data set [2], the IC50 (as a rule, the concentration needed to halve the response being measured) stood at 62.2 ± 0.11 µM. This compound came in with an IC50 at 24 h in data set [3] of 77.3 ± 2.12 µM. The 50% inhibitory concentration (IC50) in data set [4] was no less than 100 µM. The compound also yielded an IC50 in data set [5] of no less than 100 µM.

Consider `O=[N+]([O-])c1cc(Cl)ccc1-n1cnc2ccccc21` [3b, 1-(4-Chloro-2-nitrophenyl)-1H-benzimidazole], for which the melting point lay within 102 to 105 °C. Also, the IC50 in data set [1] is no less than 100 µM. For the same compound, in data set [2], the IC50 was no less than 100 µM. The IC50 at 24 h in data set [3] is no less than 100 µM. In data set [4], this compound had an IC50 of no less than 100 µM. In addition, the IC50 in data set [5] was no less than 100 µM.

In turn, `O=[N+]([O-])c1cc(C(F)(F)F)ccc1-n1nnc2ccccc21` [3c, 1-[2-Nitro-4-(trifluoromethyl)phenyl]-1H-benzotriazole] showed a melting point of 133 to 136 °C. For the same compound, the IC50 in data set [1] is no less than 100 µM. The IC50 in data set [2] is no less than 100 µM. In data set [3], this compound registered an IC50 at 24 h of no less than 100 µM. In data set [4], this compound had an IC50 of no less than 100 µM. This compound also returned an IC50 in data set [5] of no less than 100 µM.

`CCOC(=O)c1ccc(-n2nnc3ccccc32)c([N+](=O)[O-])c1` [3d, Ethyl 4-(1H-benzotriazol-1-yl)-3-nitrobenzoate]: the melting point fell in the range of 115 to 119 °C. The same compound yielded an IC50 in data set [1] of no less than 100 µM. Further, the half-inhibitory concentration (IC50) in data set [2] was no less than 100 µM. The IC50 at 24 h in data set [3] is no less than 100 µM. In data set [4], the IC50 is no less than 100 µM. The IC50 in data set [5] was no less than 100 µM.

`O=[N+]([O-])c1cc(Cl)ccc1-n1nnc2ccccc21` [3e, 1-(4-Chloro-2-nitrophenyl)-1H-benzotriazole] came in with a melting point of 134 to 137 °C. This compound displayed an IC50 in data set [1] of no less than 100 µM. In data set [2], the IC50 is no less than 100 µM. Also, the IC50 at 24 h in data set [3] is no less than 100 µM. The IC50 in data set [4] is no less than 100 µM. Further, the IC50 in data set [5] was no less than 100 µM.

`Nc1cc(C(F)(F)F)ccc1-n1cnc2ccccc21` [4a, 2-(1H-benzimidazol-1-yl)-5-(trifluoromethyl)aniline] gave a melting point of 209 to 210 °C. This compound also gave an IC50 in data set [1] of 65.26 ± 0.07 µM. Moreover, the IC50 in data set [2] was 66.75 ± 0.41 µM. The IC50 at 24 h in data set [3] amounted to 82.89 ± 0.46 µM. In data set [4], this compound displayed an IC50 of 84.03 ± 0.38 µM. Besides, the IC50 in data set [5] was found to be 67.17 ± 0.12 µM.

`Nc1cc(Cl)ccc1-n1cnc2ccccc21` [4b, 2-(1H-benzimidazol-1-yl)-5-chloroaniline] gave a melting point of 192 to 195 °C. The compound also returned an IC50 in data set [1] of no less than 100 µM. Further, the IC50 in data set [2] is no less than 100 µM. Also, in data set [3], the IC50 at 24 h was no less than 100 µM. The same compound displayed an IC50 in data set [4] of no less than 100 µM. This compound had an IC50 in data set [5] of no less than 100 µM.

Take `Nc1cc(C(F)(F)F)ccc1-n1nnc2ccccc21` [4c, 2-(1H-benzotriazol-1-yl)-5-(trifluoromethyl)aniline]: the melting point lay in the range of 136 to 139 °C. The compound also showed an IC50 in data set [1] of 75.2 ± 1.43 µM. The IC50 in data set [2] came out at 39.59 ± 0.05 µM. Moreover, the “cytotoxic effect on cell line of normal origin” value in data set [6] was “without affecting the survival”. In data set [3], this compound registered a half-maximal inhibitory concentration (IC50) at 24 h of no less than 100 µM. Further, the half-inhibitory concentration (IC50) in data set [4] is no less than 100 µM. In data set [5], the IC50 was found to be 65.38 ± 0.17 µM.

`CCOC(=O)c1ccc(-n2nnc3ccccc32)c(N)c1` [4d, Ethyl 3-amino-4-(1H-benzotriazol-1-yl)benzoate] came in with a melting point of 132 to 136 °C. Moreover, the IC50 in data set [1] was no less than 100 µM. Also, the concentration for half-maximal inhibition (IC50) in data set [2] was no less than 100 µM. Also, in data set [3], the IC50 at 24 h is no less than 100 µM. Moreover, the IC50 in data set [4] is no less than 100 µM. The half-inhibitory concentration (IC50) in data set [5] is no less than 100 µM.

In the case of `Nc1cc(Cl)ccc1-n1nnc2ccccc21` [4e, 2-(1H-benzotriazol-1-yl)-5-chloroaniline], the melting point was 154 to 156 °C. Besides, half-maximal inhibition in data set [1] (IC50) was put at 82.48 ± 0.32 µM. Further, in data set [2], the half-inhibitory concentration (IC50) came to 99.1 ± 1.47 µM. The same compound yielded an IC50 at 24 h in data set [3] of 87.4 ± 1.42 µM. This compound also yielded an IC50 in data set [4] of no less than 100 µM. For the same compound, in data set [5], the midpoint of inhibition, the IC50, lay at 91.87 ± 0.02 µM.

Compound `O=[N+]([O-])c1cc(C(F)(F)F)ccc1Nc1cc(C(F)(F)F)ccc1-n1cnc2ccccc21` [5a, N-[2-(1H-benzimidazol-1-yl)-5-(trifluoromethyl)phenyl]-2-nitro-4-(trifluoromethyl)aniline] showed a melting point of 180 to 183 °C. This compound registered an IC50 in data set [1] of no less than 100 µM. In data set [2], the IC50 is no less than 100 µM. Further, in data set [3], the IC50 at 24 h is no less than 100 µM. The compound also returned a half-inhibitory concentration (IC50) in data set [4] of no less than 100 µM. For the same compound, the IC50 in data set [5] was no less than 100 µM.

As for `O=[N+]([O-])c1cc(C(F)(F)F)ccc1Nc1cc(C(F)(F)F)ccc1-n1nnc2ccccc21` [5b, N-[2-(1H-benzotriazol-1-yl)-5-(trifluoromethyl)phenyl]-2-nitro-4-(trifluoromethyl)aniline], the melting point was 203 to 204 °C. This compound showed an IC50 in data set [1] of no less than 100 µM. The IC50 in data set [2] is no less than 100 µM. In data set [3], this compound gave an IC50 at 24 h of no less than 100 µM. Also, in data set [4], the IC50 was no less than 100 µM. This compound came in with an IC50 in data set [5] of no less than 100 µM.

Regarding `CCOC(=O)c1ccc(Nc2cc(C(F)(F)F)ccc2-n2nnc3ccccc32)c([N+](=O)[O-])c1` [5c, Ethyl 4-[2-(1H-benzotriazol-1-yl)-5-(trifluoromethyl)anilino]-3-nitrobenzoate], the melting point lay in the range of 192 to 196 °C. Also, the IC50 in data set [1] was no less than 100 µM. Besides, the IC50 in data set [2] was no less than 100 µM. The same compound came in with an IC50 at 24 h in data set [3] of no less than 100 µM. Further, the IC50 in data set [4] was no less than 100 µM. The IC50 in data set [5] was no less than 100 µM.

For the compound `O=[N+]([O-])c1cc(C(F)(F)F)ccc1Nc1cc(Cl)ccc1-n1nnc2ccccc21` [5d, N-[2-(1H-benzotriazol-1-yl)-5-chlorophenyl]-2-nitro-4-(trifluoromethyl)aniline], the melting point was 178 to 181 °C. The compound further displayed an IC50 in data set [1] of no less than 100 µM. Also, the IC50 in data set [2] is no less than 100 µM. The compound also came in with an IC50 at 24 h in data set [3] of no less than 100 µM. Besides, the IC50 in data set [4] is no less than 100 µM. The compound further displayed an IC50 in data set [5] of no less than 100 µM.

Regarding `FC(F)(F)c1ccc(-n2nnc3ccccc32)c(-n2cnc3cc(C(F)(F)F)ccc32)c1` [7a, 1-{4-(trifluoromethyl)-2-[5-(trifluoromethyl)-1H-benzimidazol-1-yl]phenyl}-1H-benzotriazole], the melting point was in the range of 124 to 128 °C. In addition, the IC50 in data set [1] was no less than 100 µM. In data set [2], the IC50 is no less than 100 µM. The compound further yielded a 50% inhibitory concentration (IC50) at 24 h in data set [3] of no less than 100 µM. In data set [4], this compound came in with an IC50 of no less than 100 µM. Further, the IC50 in data set [5] is no less than 100 µM.

Compound `CCOC(=O)c1ccc2c(c1)ncn2-c1cc(C(F)(F)F)ccc1-n1nnc2ccccc21` [7b, Ethyl 1-[2-(1H-benzotriazol-1-yl)-5-(trifluoromethyl)phenyl]-1H-benzimidazole-5-carboxylate] came in with a melting point of 100 to 104 °C. The compound further had an IC50 in data set [1] of no less than 100 µM. For the same compound, the IC50 in data set [2] was no less than 100 µM. Moreover, the IC50 at 24 h in data set [3] is no less than 100 µM. The compound also displayed an IC50 in data set [4] of no less than 100 µM. In data set [5], this compound returned a half-maximal inhibitory concentration (IC50) of no less than 100 µM.

As for `FC(F)(F)c1ccc2c(c1)ncn2-c1cc(Cl)ccc1-n1nnc2ccccc21` [7c, 1-{4-Chloro-2-[5-(trifluoromethyl)-1H-benzimidazol-1-yl]phenyl}-1H-benzotriazole], the melting point lay within 136 to 141 °C. Also, in data set [1], half-maximal inhibition (IC50) was put at 45.12 ± 0.22 µM. For the same compound, in data set [2], the IC50 is no less than 100 µM. The same compound came in with a concentration for half-maximal inhibition (IC50) at 24 h in data set [3] of 36.27 ± 0.14 µM. For the same compound, in data set [4], the IC50 was no less than 100 µM. The compound also had an IC50 in data set [5] of no less than 100 µM.

Turning to `ONc1cc(C(F)(F)F)ccc1-n1cnc2ccccc21` [8a, N-(2-(1H-benzimidazol-1-yl)-5-(trifluoromethyl)phenyl)hydroxylamine], the melting point fell in the range of 153 to 156 °C.

Compound `ONc1cc(C(F)(F)F)ccc1-n1nnc2ccccc21` [8b, N-(2-(1H-benzotriazol-1-yl)-5-(trifluoromethyl)phenyl)hydroxylamine] yielded a melting point of 151 to 154 °C.

Consider `Cc1c(C)c2c(c(C)c1O)CCC(C)(C(=O)O)O2` (stereo not shown) [Trolox, reference compound], for which the IC50 in data set [7] came to 32.45 ± 0.24 µM.
